Data reported in publication PMC7395068, “The evolution of strategies to minimise the risk of human drug-induced liver injury (DILI) in drug discovery and development” (Archives of Toxicology, 2020).
Read-outs that look alike come from different tables or passages of the source. Blank lines part the entries; values can stand above or below the compound they belong to.

Tests used:
HepG2 cells [1] = details: In vitro Assay; ref O'Brien 2006; cited from earlier work
HepG2 cells [2] = details: In vitro Assay; ref Persson 2013; cited from earlier work
HepG2 cells [3] = details: In vitro Assay; ref Tolosa 2012; cited from earlier work
PHH = details: cited from earlier work; for PHH/100uM, Proctor (2017): IC50 threshold 100 µM; for PHH ATP <100uM: In vitro Assay, ref Proctor 2017
hLiMTs [4] = details: cited from earlier work; for hLiMTs ATP <100uM: In vitro Assay, ref Proctor 2017; for hLiMTs/100uM, Proctor (2017): IC50 threshold 100 µM
[5] = test system: THLE-Null and THLE-3A4 cells; details: In vitro Assay; ref Gustafsson 2014; cited from earlier work
[6] = test system: isolated mouse liver mitochondria; details: In vitro Assay; ref Porceddu 2012; cited from earlier work
hLiMTs [7] = experiment: Combined HCI (HCS) and cellular ATP 3D assay in hLiMTs; details: for AC50 / minimal effective concentration: Homo sapiens; for hLiMTs <10 uM All: cut-off <10 uM
HepaRG spheroids = experiment: Combined HCI (HCS) and cellular ATP 3D assay in HepaRG spheroids; details: for HepaRG <10 uM All: cut-off <10 uM; for AC50 / minimal effective concentration: Homo sapiens
[8] = cited from earlier work
human hepatocytes = details: In vitro Assay; ref Xu 2008; cited from earlier work
[9] = cited from earlier work; remark: listed apart in the source
[10] = test system: HepG2 cells, primary human hepatocytes; details: In vitro Assay; ref Garside 2014; cited from earlier work
[11] = FDA drug labelling score, scale 1-8; ref Chen 2011; cited from earlier work
[12] = test system: HepG2 C3A spheroid, BSEP, Glu/Gal in HepG2 cells, bioactivation; details: cited from earlier work
[13] = read-out: Human plasma Cmax; total plasma Cmax.tot, median of 9 literature references; cited from earlier work
[14] = 2D PHH, ATP, ref Proctor et al. 2017
[15] = hLiMTs, ATP, ref Proctor et al. 2017
[16] = Microtissue model structural based (HCI), combined HCS and ATP, MEC < 25 × Cmax.tot cut-off

hLiMTs <10 uM All (hLiMTs [7]; hLiMTs, all endpoints): +ve (<10 uM)
HepaRG <10 uM All (HepaRG spheroids; HepaRG, all endpoints): +ve (<10 uM)
Structure (SMILES): CCCCc1oc2ccccc2c1C(=O)c1cc(I)c(OCCN(CC)CC)c(I)c1 [amiodarone]
Structural based (HCI) (HepG2 cells [1]): +VE
Cluser analysis (HepG2 cells [2]): +VE
Structural based (HCI) (HepG2 cells [2]): +VE
Structural based (HCI) (HepG2 cells [3]): +VE
PHH/100uM, Proctor (2017) (PHH; [14]): +VE (IC50 threshold of 100 µM)
PHH ATP <100uM (PHH): +VE (IC50 threshold of 100 µM)
hLiMTs ATP <100uM (hLiMTs [4]): +VE (IC50 threshold of 100 µM)
hLiMTs/100uM, Proctor (2017) (hLiMTs [4]; [15]): +VE (IC50 threshold of 100 µM)
THLE-Null [5]: +VE
in vitro data EC20<=2uM [6]: +VE
AC50 (hLiMTs [7]; read-out: ATP endpoint AC50): 5.33 µM
minimal effective concentration (hLiMTs [7]; read-out: ATP endpoint MEC): 4.58 µM
AC50 (hLiMTs [7]; read-out: HCS endpoint AC50): 28.2 µM
minimal effective concentration (hLiMTs [7]; read-out: HCS endpoint MEC): 6.51 µM
AC50 (HepaRG spheroids; HepaRG, read-out: ATP endpoint AC50): 112 µM
minimal effective concentration (HepaRG spheroids; HepaRG, read-out: ATP endpoint MEC): 98.8 µM
AC50 (HepaRG spheroids; HepaRG, read-out: HCS endpoint AC50): 13.1 µM
minimal effective concentration (HepaRG spheroids; HepaRG, read-out: HCS endpoint MEC): 4.62 µM

Structure (SMILES): CN(C)CCC=C1c2ccccc2CCc2ccccc21 [amitriptyline]
DILI +VE (5-8), DILI -VE (-4) ([8]; ref Chen 2016): +VE
DILI severity category ([8]; ref Chen 2016): vLess-DILI-Concern
Structural based (HCI) (HepG2 cells [1]): -VE
Cluser analysis (HepG2 cells [2]): +VE
Structural based (HCI) (HepG2 cells [2]): +VE
Structural based (HCI) (HepG2 cells [3]): +VE
Structural based (HCI) (human hepatocytes): -VE
PHH ATP <100uM (PHH): +VE (IC50 threshold of 100 µM)
hLiMTs ATP <100uM (hLiMTs [4]): +VE (IC50 threshold of 100 µM)
In vivo DILI ([9]; […]): +VE
In vivo DILI ([9]; ref Garside 2014): +VE
In vivo DILI ([9]; ref O'Brien 2006): +VE
In vivo DILI ([9]; ref Persson 2013): +VE
In vivo DILI ([9]; ref Proctor 2017): +VE
In vivo DILI ([9]; ref Tolosa 2012): +VE
In vivo DILI ([9]; ref Xu 2008): -VE
Cluster 1-6 +VE Assay [10]: +VE

Structure (SMILES): C[C@H]1c2cccc(O)c2C(=O)C2=C(O)[C@]3(O)C(=O)C(C(N)=O)=C(O)[C@@H](N(C)C)[C@@H]3[C@@H](O)[C@@H]21 [doxycycline]
DILI +VE (5-8), DILI -VE (-4) ([8]; binary in vivo human DILI call, ref Chen 2016): +VE
DILI severity category ([8]; human DILI, LTKB DILIrank category, ref Chen 2016): vLess-DILI-Concern
Structural based (HCI) (HepG2 cells [3]): +VE
In vivo DILI ([9]; ref Tolosa 2012): +VE
DILI Score (FDA) (1-8) [11]: 3

hLiMTs <25x Avg Cmax ATP (hLiMTs [7]; hLiMTs, ATP endpoint, cut-off <25x Avg Cmax): -ve
hLiMTs <100x Avg Cmaxu ATP (hLiMTs [7]; hLiMTs, ATP endpoint, cut-off <100x Avg Cmaxu): -ve
hLiMTs <25x Avg Cmax HCS (hLiMTs [7]; hLiMTs, HCS endpoints, cut-off <25x Avg Cmax): -ve
hLiMTs <100x Avg Cmaxu HCS (hLiMTs [7]; hLiMTs, HCS endpoints, cut-off <100x Avg Cmaxu): -ve
hLiMTs <25x Avg Cmax All (hLiMTs [7]; hLiMTs, all endpoints (ATP and HCS), cut-off <25x Avg Cmax): -ve
hLiMTs Cmax max All (hLiMTs [7]; hLiMTs, all endpoints, Cmax max used): -ve
hLiMTs Cmax min All (hLiMTs [7]; hLiMTs, all endpoints, Cmax min used): -ve
hLiMTs <10 uM All (hLiMTs [7]; hLiMTs, all endpoints): -ve
hLiMTs <100x Avg Cmaxu All (hLiMTs [7]; hLiMTs, all endpoints, cut-off <100x Avg Cmaxu): -ve
HepaRG <25x Avg Cmax ATP (HepaRG spheroids; HepaRG, ATP endpoint, cut-off <25x Avg Cmax): -ve
HepaRG <100x Avg Cmaxu ATP (HepaRG spheroids; HepaRG, ATP endpoint, cut-off <100x Avg Cmaxu): -ve
HepaRG <25x Avg Cmax HCS (HepaRG spheroids; HepaRG, HCS endpoints, cut-off <25x Avg Cmax): -ve
HepaRG <100x Avg Cmaxu HCS (HepaRG spheroids; HepaRG, HCS endpoints, cut-off <100x Avg Cmaxu): -ve
HepaRG <25x Avg Cmax All (HepaRG spheroids; HepaRG, all endpoints (ATP and HCS), cut-off <25x Avg Cmax): -ve
HepaRG Cmax max All (HepaRG spheroids; HepaRG, all endpoints, Cmax max used): -ve
HepaRG Cmax min All (HepaRG spheroids; HepaRG, all endpoints, Cmax min used): -ve
HepaRG <10 uM All (HepaRG spheroids; HepaRG, all endpoints): -ve
HepaRG <100x Avg Cmaxu All (HepaRG spheroids; HepaRG, all endpoints, cut-off <100x Avg Cmaxu): -ve
Structure (SMILES): Cc1c(-c2ccccc2)oc2c(C(=O)OCCN3CCCCC3)cccc2c1=O [flavoxate]
DILI severity category (Chen et al. [2016]) ([8]; LTKB DILIrank category, ref Chen et al. 2016): No
DILI severity category (Chen 2016) ([8]; human DILI classification, LTKB DILIrank, ref Chen et al. 2016): No
DILI severity category ([8]; human DILI severity, ref Chen et al.): No
DILI +VE (5-8), DILI -VE (-4) ([8]; ref Chen 2016): -VE
DILI severity category ([8]; ref Chen 2016): vNo-DILI-Concern
PHH/100xCmax, Proctor (2017) (PHH; 2D PHH, ATP, IC50 < 100 × Cmax.tot, ref Proctor et al. 2017): -VE
PHH/100uM, Proctor (2017) (PHH; [14]): -VE
PHH ATP <100uM (PHH): -VE
hLiMTs ATP <100uM (hLiMTs [4]): -VE
hLiMTs/100xCmax, Proctor (2017) (hLiMTs [4]; hLiMTs, ATP, IC50 < 100 × Cmax.tot, ref Proctor et al. 2017): -VE
hLiMTs/100uM, Proctor (2017) (hLiMTs [4]; [15]): -VE
Bayesian Machine Learning DILI prediction, Williams (2019) ([12]; Bayesian modeling, ref Williams et al. 2019): -VE
Bayesian Machine Learning ([12]; ref Williams 2019): -VE
Cmax [13]: 1790 nM
Assigned DILI category ([9]; Chen et al. 2016 or literature alignment, ref Chen et al. 2016): 1
In vivo DILI ([9]; ref Proctor 2017): -VE
In vivo DILI ([9]; ref Williams 2019): -VE
AC50 (hLiMTs [7]; read-out: ATP endpoint AC50): 127 µM
minimal effective concentration (hLiMTs [7]; read-out: ATP endpoint MEC): 111 µM
DILI prediction hLiMTs (HCS-MEC) (hLiMTs [7]; [16]): -VE
DILI prediction HepaRG spheroids (HCS-MEC) (HepaRG spheroids; [16]): -VE
